Data on 95 compounds can be found in ChEMBL document CHEMBL3507680, “University of Dundee, Gates Library screen for HepG2 cell viability”.

This data set in a line: Human HepG2 cell viability assay in 384 well format. It is filed as toxicity, cell-based. Also on record: dose 125 nL, time 70.5 hour; concentration not given beside the values. The conditions noted are these: HepG2 cells, read-out: Inhibition.

In the case of `COC(=O)c1ccc2c(-c3ccnc(NCCO)n3)c[nH]c2c1`, the cytotoxicity at 70.5 h was -1.71%.

With `COCCC(=O)N1CCn2c(COCC3CC3)cnc2C1C` (stereo not given), the cytotoxicity at 70.5 h is -0.0494%.

For the compound `CCn1cc2c(n1)C(COC)CN(C(=O)COc1ccccc1C)C2` (stereo not given), the cytotoxicity at 70.5 h was -7.2%.

For `CC(C)NC(=O)N1C[C@H]2C[C@H](C(=O)NCc3ccccc3)[C@@H](C1)O2`, the cytotoxicity at 70.5 h is -5.16%.

Regarding `Cc1ncoc1C(=O)N1CCn2c(COCC3CC3)cnc2C1C` (stereo not given), the cytotoxicity at 70.5 h was determined as 10.1%.

With `Cc1noc(C)c1C(=O)N1CC[C@H]2C[C@@H](c3ccncn3)O[C@@H]2C1`, the cytotoxicity at 70.5 h is -5.05%.

Regarding `O=C(C1CCOCC1)N1CC[C@H]2C[C@@H](c3ccncn3)O[C@@H]2C1`, the cytotoxicity at 70.5 h was -8.58%.

`Cn1cccc1C(=O)N1CCCC2(CCCN2Cc2cccnc2)C1` (stereo not given): the cytotoxicity at 70.5 h is -5.57%.

Turning to `COCCN1C(=O)C[C@@H]2[C@H]1CCN2C(=O)COc1ccccc1`, the cytotoxicity at 70.5 h was -20.9%.

For `O=C(c1ccncc1)N1CCC2(CC1)CC(Oc1cccnc1)CO2` (stereo not given), the cytotoxicity at 70.5 h was -14.5%.

As to `O=C(CO)N1CCc2onc(Cn3cccn3)c2C1`, the cytotoxicity at 70.5 h was -13.8%.

Regarding `O=C(C1CC=CC1)N1CCC2(CC1)CN(Cc1ccccn1)CCO2`, the cytotoxicity at 70.5 h is -4.02%.

On to `COCCN1C[C@H]2[C@@H](C1)N(C(=O)COc1ccccc1)CC[C@H]2OC`, for which the cytotoxicity at 70.5 h was -11.3%.

As for `COCC1CC2(CCN(Cc3ccccn3)CC2)CN1C(C)C` (stereo not given), the cytotoxicity at 70.5 h was -7.51%.

Regarding `O=C(c1cc(C2CC2)on1)N1CC[C@]2(C[C@H](Oc3cccnc3)CO2)C1`, the cytotoxicity at 70.5 h was -16.2%.

For the compound `COCCN1C[C@H]2[C@@H](C1)N(C(=O)c1cccs1)CC[C@H]2OC`, the cytotoxicity at 70.5 h was -21.9%.

Consider `COCC(=O)N1C[C@@H]2OCCN(Cc3c(C)noc3C)[C@@H]2C1`, for which the cytotoxicity at 70.5 h was -11.4%.

On to `Cc1cc(CN2CC[C@H]3C[C@H](C(=O)N(C)C)O[C@@H]3C2)no1`, for which the cytotoxicity at 70.5 h was -13.6%.

As for `O=C(c1ccnnc1)N1C[C@@H](OCC2CCOCC2)[C@H]2OCCC[C@H]21`, the cytotoxicity at 70.5 h is -12.9%.

As to `Cc1ccc(N2CCC3(CCN(C(N)=O)CC3)CC2)nn1`, the cytotoxicity at 70.5 h is -27.1%.

Take `Cc1cncc(C(=O)N2Cc3ccccc3C3(CCN(C)CC3)C2)c1`: the cytotoxicity at 70.5 h is -14.6%.

In the case of `Cc1ccc(C(=O)N2C[C@H]3CCC[C@@]3(COCc3cccnc3)C2)s1`, the cytotoxicity at 70.5 h is -12%.

Turning to `C[C@H](O)CNc1cc(-c2cn[nH]c2)ncn1`, the cytotoxicity at 70.5 h stood at 6.37%.

In the case of `CC(C)(CO)Nc1cc(-c2ccncc2)ncn1`, the cytotoxicity at 70.5 h was -2.83%.

Regarding `CC(C)[C@@H](CO)Nc1cc(-c2cn[nH]c2)ncn1`, the cytotoxicity at 70.5 h worked out at 0.985%.

Turning to `COc1cc(-c2cc(=O)[nH]cn2)cc(OC)c1OC`, the cytotoxicity at 70.5 h is -5.45%.

Take `COCCN1CC(=O)c2sc(NC(C)C)nc2C1`: the cytotoxicity at 70.5 h is 2.05%.

Turning to `Cc1ccc2c(c1)[C@@H](CC(=O)N1CCOCC1)CCO2`, the cytotoxicity at 70.5 h amounted to 0.54%.

As to `OCCNc1nccc(-c2c[nH]nc2-c2ccncc2)n1`, the cytotoxicity at 70.5 h is -2.75%.

Take `OCCNc1nccc(-c2c[nH]nc2-c2cccnc2)n1`: the cytotoxicity at 70.5 h is -3.73%.

In the case of `Cc1[nH]c2ccccc2c1-c1ccnc(N[C@@H](C)CO)n1`, the cytotoxicity at 70.5 h is -3.05%.

Turning to `NC(=O)[C@H]1CCCN(c2nccc(-c3ccncc3)n2)C1`, the cytotoxicity at 70.5 h is -0.804%.

As for `CNc1nccc(-c2cnc3sc(C)c(C)n3c2=O)n1`, the cytotoxicity at 70.5 h worked out at 0.0839%.

Take `O=c1[nH][nH]cc1-c1ccnc(NCCc2cccc(O)c2)n1`: the cytotoxicity at 70.5 h is -7.19%.

`Nc1ncc(-c2cccc(NC(=O)[C@@H]3CCCCN3)c2)cn1`: the cytotoxicity at 70.5 h was -4.27%.

As for `CC[C@@H](C)[C@@H](N)C(=O)Nc1cccc(-c2cnc(N)nc2)c1`, the cytotoxicity at 70.5 h was -6%.

For the compound `CNc1ncc(-c2ccnn2C2CCN(C(C)=O)CC2)cn1`, the cytotoxicity at 70.5 h was -7.63%.

Take `CN(C)c1nccc(NCc2cc(-c3cccs3)n[nH]2)n1`: the cytotoxicity at 70.5 h was found to be 4.36%.

Take `CCCN(C)c1ncc2c(n1)N(C)CCN(CC1CC1)C2=O`: the cytotoxicity at 70.5 h was -1.69%.

With `O=c1[nH]c(-c2ccncc2)ncc1-c1ccnc(NC2CC2)n1`, the cytotoxicity at 70.5 h worked out at 23.6%.

For `COCC(=O)NCC[C@H]1CC(C)(C)Oc2ccc(OC)cc21`, the cytotoxicity at 70.5 h was -2.28%.

Regarding `Cc1csc2ncc(-c3ccnc(N4CCCC4)n3)c(=O)n12`, the cytotoxicity at 70.5 h is -2.62%.

`CC[C@H](C)Nc1ncc(-c2cccc(NC(=O)CNC)c2)cn1`: the cytotoxicity at 70.5 h was -0.898%.

`O=C1CN(CC2CC2)Cc2nc(NCc3ccccc3)sc21`: the cytotoxicity at 70.5 h turned out to be 20.7%.

Turning to `COc1ccc(C(=O)NC2CC2)c(OC2CCN(C(C)CO)CC2)c1` (stereo not given), the cytotoxicity at 70.5 h came to 0.736%.

Consider `CCC(=O)c1ccc(OCC(=O)NCC2CC(CC)=NO2)cc1` (stereo not given), for which the cytotoxicity at 70.5 h was -1.34%.

For the compound `COCCN(Cc1ccc(C)cc1)Cc1c[nH]cn1`, the cytotoxicity at 70.5 h is -7.56%.

Take `CC(C)=CCC1(CO)CCCN(S(C)(=O)=O)C1` (stereo not given): the cytotoxicity at 70.5 h stood at 1.79%.

For the compound `CN1C(=O)[C@H]2CC[C@@H]1CN(S(=O)(=O)c1ccc(Cl)cc1Cl)C2`, the cytotoxicity at 70.5 h was -10.4%.

As to `O=C(NCCO)c1coc(Cn2cnc3ccccc32)n1`, the cytotoxicity at 70.5 h is -1.94%.

As for `COCCN(Cc1nccs1)C(=O)c1cc(-c2ccc(C)s2)n[nH]1`, the cytotoxicity at 70.5 h is -5.54%.

Take `Clc1cc(NCc2ccncc2)nc2[nH]ccc12`: the cytotoxicity at 70.5 h amounted to 13%.

Take `O=C(CCc1nc(Cl)n[nH]1)N1C[C@@H](CN2CCCCC2)[C@@H](CO)C1`: the cytotoxicity at 70.5 h was -6.93%.

For `O=C(CCN1C[C@H]2CC[C@@H]1CN(c1ncccn1)C2)NCc1ccco1`, the cytotoxicity at 70.5 h was found to be 27.5%.

Consider `CC(O)C1CCN(C(=O)Nc2nc(-c3ccccc3)ns2)CC1` (stereo not given), for which the cytotoxicity at 70.5 h was 4.55%.

As to `COc1cc2[nH]c(=O)c(CN3CCC[C@@H]3C(N)=O)cc2c(OC)c1OC`, the cytotoxicity at 70.5 h is 23.4%.

Regarding `CS(=O)(=O)c1ncc(CN2CCCC(C(N)=O)C2)n1CC1CCCCC1` (stereo not given), the cytotoxicity at 70.5 h was -1.8%.

Regarding `COc1ccnc(N2Cc3cnc(C(C)(C)C)nc3C2)n1`, the cytotoxicity at 70.5 h came out at 0.551%.

Consider `CC(=O)N1CCC(Oc2ccc(Cl)cc2C(=O)N2CCCO2)CC1`, for which the cytotoxicity at 70.5 h was -3.91%.

As for `CCOc1ccc(CN2CC[C@](C)(O)C(C)(C)C2)cn1`, the cytotoxicity at 70.5 h was -1.38%.

With `CCCc1cc(CNC2CCN(c3cc(C(C)C)nc(C)n3)CC2)on1`, the cytotoxicity at 70.5 h is -4.25%.

As to `CCCN1CCC(CC(=O)N2CC(C)(C)[C@@](C)(O)C2)CC1`, the cytotoxicity at 70.5 h is -2.11%.

In the case of `Cn1ccnc1CN1CCN(Cc2ccncc2)[C@@H]2CS(=O)(=O)C[C@@H]21`, the cytotoxicity at 70.5 h is -13.6%.

In the case of `CCc1ncc(CN2CCCC3(CCC(=O)N(CCC(C)C)C3)C2)cn1` (stereo not given), the cytotoxicity at 70.5 h was 1.46%.

Regarding `Cc1cccc(CN(Cc2ccccc2)Cc2nccs2)n1`, the cytotoxicity at 70.5 h was -11.1%.

For the compound `CCc1nnsc1-c1nc(C(C)C)nn1-c1ccc2c(c1)OCO2`, the cytotoxicity at 70.5 h is -5.86%.

`COCC(=O)N1CCN(S(=O)(=O)c2ccccc2)[C@H]2CS(=O)(=O)C[C@H]21`: the cytotoxicity at 70.5 h is -7.41%.

With `Cc1ccccc1C1CCN(CCNC(=O)CS(C)(=O)=O)C1` (stereo not given), the cytotoxicity at 70.5 h is -4.32%.

Turning to `CC(C)c1cc(C(=O)N2C[C@H]3CC[C@@H]2CN(Cc2cscn2)C3)no1`, the cytotoxicity at 70.5 h was 15.2%.

With `O=C(O)c1cn(CC2CCCN(c3nc4ccccc4s3)C2)nn1` (stereo not given), the cytotoxicity at 70.5 h turned out to be 20.3%.

Consider `CC(C)(O)CCc1cccc(C(=O)NCC2CN(S(C)(=O)=O)CCO2)c1` (stereo not given), for which the cytotoxicity at 70.5 h was found to be 10.1%.

As to `Cc1cccc(C(=O)N2CCCC(c3nccn3Cc3cscn3)C2)n1` (stereo not given), the cytotoxicity at 70.5 h was -5.05%.

For `Cc1ncccc1Oc1ncnc(N2CCC(O)(CO)CC2)c1C`, the cytotoxicity at 70.5 h is -6.21%.

For `NC1(C(=O)NCC2CCCN(Cc3cccc4nonc34)C2)CCC1` (stereo not given), the cytotoxicity at 70.5 h is -3.66%.

Regarding `CC(C)=CCN1CCN(C(=O)CSc2ccccn2)[C@H]2CS(=O)(=O)C[C@H]21`, the cytotoxicity at 70.5 h was -8.43%.

As to `Cc1nc(C(C)C)sc1C(=O)NCCSc1ccccn1`, the cytotoxicity at 70.5 h was -11.3%.

With `O=C1N(CCc2ccccc2)CCCC1(O)CNCc1ccc(F)cc1` (stereo not given), the cytotoxicity at 70.5 h turned out to be 6.09%.

On to `CC(=O)N1C[C@H]2CNC[C@@]2(C(=O)NCCNc2ccncc2C)C1`, for which the cytotoxicity at 70.5 h was -0.521%.

On to `CN(C)CC(=O)N1CCC2(CC(=O)N(c3cccc(C#N)c3)C2)C1` (stereo not given), for which the cytotoxicity at 70.5 h is 4.59%.

Regarding `O=C(NCCCN1CCOCC1)c1ccn(-c2ccc3ccccn23)n1`, the cytotoxicity at 70.5 h stood at 23.5%.

Turning to `N#Cc1cccc(N2CC3(CCN(C(=O)c4cccnc4)C3)CC2=O)c1` (stereo not given), the cytotoxicity at 70.5 h was -0.309%.

Take `O=C(C1=CCCCC1)N1CCC2(CC1)COC(COc1ccccn1)C2` (stereo not given): the cytotoxicity at 70.5 h was -3.14%.

Take `CCOCC1CC2(CCN(C(=O)c3ccccn3)CC2)CO1` (stereo not given): the cytotoxicity at 70.5 h is -6.81%.

For the compound `CN(C)CC(=O)N1C[C@H]2CCC[C@@]2(COc2ccccn2)C1`, the cytotoxicity at 70.5 h was -16.4%.

On to `c1cnn(Cc2nnc3n2CCCN(CC2CCOCC2)C3)c1`, for which the cytotoxicity at 70.5 h is -2.91%.

Take `CCS(=O)(=O)N1CCC2(CC1)CN(Cc1ccccn1)C(=O)CO2`: the cytotoxicity at 70.5 h was -11.1%.

On to `COCC1CN(Cc2ccc(OC)cc2)Cc2nn(C)cc21` (stereo not given), for which the cytotoxicity at 70.5 h was 8.65%.

For `Cn1cc(CN2CCCC3(CCCN3S(C)(=O)=O)C2)cn1` (stereo not given), the cytotoxicity at 70.5 h was -16.8%.

On to `Cn1cc(CN2CCC3(CC2)CC(c2ccncc2)C(=O)N3)cn1` (stereo not given), for which the cytotoxicity at 70.5 h was -10.1%.

For the compound `c1cnc(N2CCC3(COCCN(CC4CC4)C3)C2)nc1` (stereo not given), the cytotoxicity at 70.5 h is -21.1%.

In the case of `CCc1ccc(CN2CCC3(CC2)NC(=O)CC3c2ccncc2)o1` (stereo not given), the cytotoxicity at 70.5 h was -23%.

Take `O=C(Nc1cccnc1)[C@@H]1C[C@H]2OCC[C@H]2N(Cc2ccsc2)C1`: the cytotoxicity at 70.5 h was found to be 0.225%.

For `CN(C)CCN1CCCC12CCN(C(=O)c1cccn1C)CC2`, the cytotoxicity at 70.5 h is -15.1%.

With `CN1CC(=O)N(c2ccccc2)CC12CCN(CC1CC1)C2` (stereo not given), the cytotoxicity at 70.5 h is -26.6%.

Take `CN(C)CCOCC1CN(Cc2ccsc2)Cc2ccnn2C1` (stereo not given): the cytotoxicity at 70.5 h turned out to be 3.88%.
